Where two headings read alike, the source gives them in different places.
Legend:
R3 = experiment: ITC; parameters: species or system Desulfovibrio inopinatus; conditions: read-out: KD (uM) / Polyamine / Ethylenediamine; one binding site model
R7 = biological target: T1, R7 (Peptoclostridium litorale, UniProt A0A069RI07); experiment: ITC; assay type: binding
T1 sequence (A0A069RI07 38-318 limits assumed): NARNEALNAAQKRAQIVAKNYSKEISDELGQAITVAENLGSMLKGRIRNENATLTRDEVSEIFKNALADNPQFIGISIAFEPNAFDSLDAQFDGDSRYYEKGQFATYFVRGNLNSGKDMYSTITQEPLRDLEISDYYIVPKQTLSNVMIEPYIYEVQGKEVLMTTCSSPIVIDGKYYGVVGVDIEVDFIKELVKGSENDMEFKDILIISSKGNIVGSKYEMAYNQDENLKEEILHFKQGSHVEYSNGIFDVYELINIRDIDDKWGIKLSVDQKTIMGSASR

R5 = biological target: T2, R5 (Williamwhitmania taraxaci, UniProt A0A1G6J2J7); experiment: ITC; assay type: binding
T2 sequence (A0A1G6J2J7 34-316 limits assumed): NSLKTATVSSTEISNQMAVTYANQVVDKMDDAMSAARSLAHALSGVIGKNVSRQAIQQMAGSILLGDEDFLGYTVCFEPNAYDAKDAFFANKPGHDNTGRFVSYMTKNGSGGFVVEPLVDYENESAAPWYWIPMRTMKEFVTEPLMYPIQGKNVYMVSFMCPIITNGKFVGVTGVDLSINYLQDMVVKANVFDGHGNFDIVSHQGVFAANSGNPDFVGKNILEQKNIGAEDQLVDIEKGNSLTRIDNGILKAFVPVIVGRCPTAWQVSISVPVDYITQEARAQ

R8 = biological target: T3, R8 (Azospirillum baldaniorum, UniProt A0A9P1JTZ6); experiment: ITC; conditions: one binding site model
T3 sequence (A0A9P1JTZ6 19-310): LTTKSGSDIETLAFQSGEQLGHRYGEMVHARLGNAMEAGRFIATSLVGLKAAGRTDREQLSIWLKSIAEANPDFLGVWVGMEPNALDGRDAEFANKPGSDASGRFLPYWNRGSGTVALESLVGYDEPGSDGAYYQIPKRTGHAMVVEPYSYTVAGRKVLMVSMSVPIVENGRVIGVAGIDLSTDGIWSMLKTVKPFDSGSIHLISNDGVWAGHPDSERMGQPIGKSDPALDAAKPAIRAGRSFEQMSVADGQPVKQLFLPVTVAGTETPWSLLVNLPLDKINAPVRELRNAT

R1 = biological target: T4, R1 (Methanosarcina mazei, UniProt Q8PSW1); experiment: ITC; assay type: binding
T4 sequence (Q8PSW1 32-312): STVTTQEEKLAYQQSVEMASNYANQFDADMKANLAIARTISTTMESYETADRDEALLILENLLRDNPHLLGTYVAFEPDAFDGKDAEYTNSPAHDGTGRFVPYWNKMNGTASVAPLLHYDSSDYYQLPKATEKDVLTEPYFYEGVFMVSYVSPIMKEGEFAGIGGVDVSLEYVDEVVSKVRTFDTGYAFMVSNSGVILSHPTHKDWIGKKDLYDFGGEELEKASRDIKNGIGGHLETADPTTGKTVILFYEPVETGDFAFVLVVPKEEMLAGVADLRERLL

PacA-LBD = PacA-LBD (Pectobacterium atrosepticum, UniProt Q6D515); experiment: biochemical
PacA-LBD, sequence (Q6D515 1-271): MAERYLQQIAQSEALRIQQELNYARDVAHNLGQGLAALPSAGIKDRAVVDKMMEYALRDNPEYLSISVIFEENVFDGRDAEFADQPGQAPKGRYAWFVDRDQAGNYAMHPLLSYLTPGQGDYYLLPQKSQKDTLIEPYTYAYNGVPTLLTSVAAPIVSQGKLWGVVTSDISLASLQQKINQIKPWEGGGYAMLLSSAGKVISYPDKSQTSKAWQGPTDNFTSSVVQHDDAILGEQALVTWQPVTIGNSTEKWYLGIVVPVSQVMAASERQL

R6 = R6 (Oleiharenicola lentus, UniProt A0A4Q1C8G9); experiment: biochemical
R6, sequence (A0A4Q1C8G9 35-324 limits assumed): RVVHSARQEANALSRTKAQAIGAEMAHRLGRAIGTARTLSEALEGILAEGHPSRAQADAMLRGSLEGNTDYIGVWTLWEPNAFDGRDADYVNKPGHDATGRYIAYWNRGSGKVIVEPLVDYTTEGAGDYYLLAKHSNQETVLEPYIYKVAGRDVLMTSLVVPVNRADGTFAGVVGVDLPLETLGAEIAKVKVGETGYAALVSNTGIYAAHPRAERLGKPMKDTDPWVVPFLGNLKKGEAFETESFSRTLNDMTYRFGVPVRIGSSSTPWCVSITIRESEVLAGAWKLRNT

Row | SMILES | Kd (R7) | Kd (R5) | Kd (R1) | also measured
1 | NCCN [Ethylenediamine] | 12.3 ± 1 µM | – | – | Kd (R3): 29.6 ± 3 µM
2 | C[N+](C)(C)CCO [Choline] | – | 3.6 ± 0.1 µM | – | Kd (R8; read-out: KD (uM) / Quaternary amines / Choline): 183 ± 4 µM
3 | CNC [Dimethylamine] | 5.3 ± 0.4 µM | – | 0.53 ± 0.02 µM | Kd (R8; read-out: KD (uM) / Methyl-/ethyl-/ethanol amines^* / Dimethylamine): 5.8 ± 1 µM
4 | CN [Methylamine] | 16.6 ± 2 µM | – | 35.1 ± 3 µM | Kd (R8; read-out: KD (uM) / Methyl-/ethyl-/ethanol amines^* / Methylamine): 25.1 ± 3 µM
5 | CN(C)C [Trimethylamine] | – | 1.2 ± 0.1 µM | 10 ± 0.4 µM | Kd (PacA-LBD): 113 ± 6 µM; Kd (R8; read-out: KD (uM) / Methyl-/ethyl-/ethanol amines^* / Trimethylamine): 24 ± 4 µM; Kd (R6): 151 ± 4 µM

Source: publication PMC10589655 (Proceedings of the National Academy of Sciences of the …, 2023)
